Measurements published in BindingDB's records for doi:10.1021/cb4007562 (University of Konstanz, 2014).

Legend:
DNA polymerase lambda = molecular target: T1, DNA polymerase lambda (Homo sapiens, UniProt Q9UGP5); experiment: DNA Pol λ PEX Assay; conditions: pH 7.5
T1 sequence (Q9UGP5 whole entry): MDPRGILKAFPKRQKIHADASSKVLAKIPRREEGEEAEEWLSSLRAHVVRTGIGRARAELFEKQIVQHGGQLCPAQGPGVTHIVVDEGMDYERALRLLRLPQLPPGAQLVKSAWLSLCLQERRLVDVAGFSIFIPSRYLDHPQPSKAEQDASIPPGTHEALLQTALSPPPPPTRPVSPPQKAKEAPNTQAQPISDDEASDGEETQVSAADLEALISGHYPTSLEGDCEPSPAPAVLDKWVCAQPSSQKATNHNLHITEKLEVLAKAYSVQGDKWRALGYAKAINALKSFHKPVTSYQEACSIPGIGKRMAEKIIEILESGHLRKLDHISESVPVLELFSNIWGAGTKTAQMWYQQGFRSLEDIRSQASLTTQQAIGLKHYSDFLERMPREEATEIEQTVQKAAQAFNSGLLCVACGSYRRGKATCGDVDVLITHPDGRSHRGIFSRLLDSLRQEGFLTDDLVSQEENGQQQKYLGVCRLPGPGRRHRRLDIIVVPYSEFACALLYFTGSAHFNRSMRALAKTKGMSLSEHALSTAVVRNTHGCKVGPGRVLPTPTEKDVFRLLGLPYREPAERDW
Experimental: Pol λ reactions were made in a final volume of 20uL containing 50mM Tris-HCl pH 7.5, 1.5mM MgCl2, 5% (v/v) glycerol, 1mM DTT, 250nM purified recombinant pol λ, 150nM radioactive-labled primer F20H, 225nM template F33A, 0.1mg/mL BSA, 1uL compound solution with variable concentrations in DMSO (1uL DMSO for the solvent control). 5uL dNTP solution (15uM final) was added to initiate the reactions and positive controls. Reactions and controls were incubated for 30 min at 37 degrees Celsius and subsequently quenched using 45uL PAGE loading solution (80% (v/v) formamide, 20mM EDTA, 0.05% (w/v) bromophenol blue, 0.05% (w/v) xylene cyanol) per well. The reaction mixture was denatured for 5 min at 95 degrees Celsius and analyzed by 12% PAGE containing 8M urea.

DNA polymerase beta = DNA polymerase beta (Homo sapiens, UniProt P06746); experiment: DNA Pol β PEX Assay; conditions: pH 7.9
Experimental: Pol β reactions were made in a final volume of 20uL containing 50mM Tris-HCl pH 7.9, 20mM KCl, 5% (v/v) glycerol, 1mM DTT, 2mM MnCl2, 250nM purified recombinant pol β, 150nM radioactive-labeled primer F20H, 225nM template F33A, 0.1mg/mL BSA, 1uL compound solution with various concentrations in DMSO (1uL DMSO for the solvent control). 5uL dNTP (15uM final) was added to initiate the reactions and positive controls. Reactions and controls were incubated for 30 min at 37 degrees Celsius and subsequently quenched using 45uL PAGE loading solution (80% (v/v) formamide, 20mM EDTA, 0.05% (w/v) bromophenol blue, 0.05% (w/v) xylene cyanol) per well. The reaction mixture was denatured for 5 min at 95 degrees Celsius and analyzed by 12% PAGE containing 8M urea.

Row | IC50 (DNA polymerase lambda) [µM] | IC50 (DNA polymerase beta) [µM] | SMILES
1 | < 10 | < 50 | Cc1ccccc1Sc1ccc(C=C2SC(S)=NC2=O)cc1C(F)(F)F [(Z)-2-Thioxo-5-(4-(o-tolylthio)-3-(trifluoromethyl)benzylidene)thiazolidin-4-one 30]
2 | < 10 | > 50 | Cc1ccc(Sc2ccc(C=C3SC(S)=NC3=O)cc2[N+](=O)[O-])cc1F [(Z)-5-(4-((3-Fluoro-4-methylphenyl)thio)-3-nitrobenzylidene)-2-thioxothiazolidin-4-one 20]
3 | < 10 | 38.7 | Cc1ccc(Sc2ccc(C=C3SC(S)=NC3=O)cc2F)cc1 [(Z)-5-(3-Fluoro-4-(p-tolylthio)benzylidene)-2-thioxothiazolidin-4-one 12]
4 | 5.9 | 64.4 | Cc1ccc(Sc2ccc(C=C3SC(S)=NC3=O)cc2[N+](=O)[O-])cc1 [DNA polymerase inhibitor 1]
5 | 4 | > 50 | Cc1ccc(Sc2ccc(C=C3SC(S)=NC3=O)cc2Br)cc1F [(Z)-5-(3-Bromo-4-((3-fluoro-4-methylphenyl)thio)benzylidene)-2-thioxothiazolidin-4-one 27]
6 | < 10 | < 50 | CCc1ccc(Sc2ccc(C=C3SC(S)=NC3=O)cc2[N+](=O)[O-])cc1 [(Z)-5-(4-((4-Ethylphenyl)thio)-3-nitrobenzylidene)-2-thioxothiazolidin-4-one 17]
7 | < 10 | > 50 | O=C1N=C(S)SC1=Cc1ccc(Sc2ccc3ccccc3c2)c([N+](=O)[O-])c1 [(Z)-5-(4-(Naphthalen-2-ylthio)-3-nitrobenzylidene)-2-thioxothiazolidin-4-one 25]
8 | 6 | 29.8 | Cc1cccc(Sc2ccc(C=C3SC(S)=NC3=O)cc2[N+](=O)[O-])c1 [(Z)-5-(3-Nitro-4-(m-tolylthio)benzylidene)-2-thioxothiazolidin-4-one 22]
9 | 4 | < 50 | Cc1ccc(Sc2ccc(C=C3SC(S)=NC3=O)c(Sc3ccc(C)cc3)c2)cc1 [(Z)-5-(2,4-Bis(p-tolylthio)benzylidene)-2-thioxothiazolidin-4-one 31]
10 | < 10 | < 50 | Cc1ccc(Sc2sc(C=C3SC(S)=NC3=O)cc2Br)cc1 [(Z)-5-((4-Bromo-5-(p-tolylthio)thiophen-2-yl)methylene)-2-thioxothiazolidin-4-one 32]
11 | < 10 | – | Cc1ccc(Sc2ccc(C=C3SC(S)=NC3=O)cc2C#N)cc1 [(Z)-5-((4-Oxo-2-thioxothiazolidin-5-ylidene)methyl)-2-(ptolylthio) benzonitrile 16]
12 | < 10 | > 50 | O=C1N=C(S)SC1=Cc1ccc(Sc2ccc(C(F)(F)F)cc2)c([N+](=O)[O-])c1 [(Z)-5-(3-Nitro-4-((4-(trifluoromethyl)phenyl)thio)benzylidene)-2-thioxothiazolidin-4-one 18]
13 | 3.9 | 18.2 | Cc1ccccc1Sc1ccc(C=C2SC(S)=NC2=O)cc1[N+](=O)[O-] [(Z)-5-(3-Nitro-4-(o-tolylthio)benzylidene)-2-thioxothiazolidin-4-one 23]
14 | < 10 | < 50 | C=C(c1ccc(Sc2ccc(C)cc2)c([N+](=O)[O-])c1)c1sc(S)nc1O [(Z)-5-(1-(3-Nitro-4-(p-tolylthio)phenyl)ethylidene)-2-thioxothiazolidin-4-one 8]
15 | < 10 | 50 | Cc1ccccc1Sc1ccc(C=C2SC(S)=NC2=O)cc1 [23 (Z)-2-Thioxo-5-(4-(o-tolylthio)benzylidene)thiazolidin-4-one 28]
16 | 5.7 | > 50 | Cc1ccc(Sc2ccc(C=C3SC(S)=NC3=O)cc2Cl)cc1 [(Z)-5-(3-Chloro-4-(p-tolylthio)benzylidene)-2-thioxothiazolidin-4-one 13]
17 | < 20 | – | Cc1ccc(S(=O)(=O)c2ccc(C=C3SC(S)=NC3=O)cc2[N+](=O)[O-])cc1 [(Z)-5-(3-Nitro-4-tosylbenzylidene)-2-thioxothiazolidin-4-one 10]
18 | < 10 | 50 | Cc1ccccc1Sc1ccc(C=C2SC(S)=NC2=O)cc1F [(Z)-5-(3-Fluoro-4-(o-tolylthio)benzylidene)-2-thioxothiazolidin-4-one 29]
19 | < 10 | 28.1 | Cc1ccc(Sc2ccc(C=C3SC(S)=NC3=O)cc2C(F)(F)F)cc1 [(Z)-2-Thioxo-5-(4-(p-tolylthio)-3-(trifluoromethyl)benzylidene)thiazolidin-4-one 15]
20 | < 10 | < 50 | O=C1N=C(S)SC1=Cc1ccc(SC2CCCCC2)c([N+](=O)[O-])c1 [(Z)-5-(4-(Cyclohexylthio)-3-nitrobenzylidene)-2-thioxothiazolidin-4-one 2]
21 | < 20 | > 50 | O=C1N=C(S)SC1=Cc1ccc(Sc2ccc(OC(F)(F)F)cc2)c([N+](=O)[O-])c1 [(Z)-5-(3-Nitro-4-((4-(trifluoromethoxy)phenyl)thio)benzylidene)-2-thioxothiazolidin-4-one 19]
22 | < 20 | > 50 | O=C1N=C(S)SC1=Cc1ccc(SC2CCCC2)c([N+](=O)[O-])c1 [(Z)-5-(4-(Cyclopentylthio)-3-nitrobenzylidene)-2-thioxothiazolidin-4-one 26]
23 | < 10 | > 50 | Cc1ccc(Sc2ccc(C=C3SC(O)=NC3=O)cc2[N+](=O)[O-])cc1 [(Z)-5-(3-Nitro-4-(p-tolylthio)benzylidene)thiazolidine-2,4-dione 3]
24 | < 10 | > 50 | Cc1ccc(Sc2ccc(C=C3SC(S)=NC3=O)cc2Br)cc1 [(Z)-5-(3-Bromo-4-(p-tolylthio)benzylidene)-2-thioxothiazolidin-4-one 14]
25 | < 10 | < 50 | Cc1ccc(Sc2ccc(C=C3SC(S)=NC3=O)cc2)cc1 [(Z)-2-Thioxo-5-(4-(p-tolylthio)benzylidene)thiazolidin-4-one 11]
26 | < 10 | > 50 | O=C1N=C(S)SC1=Cc1ccc(Sc2c(F)c(F)c(C(F)(F)F)c(F)c2F)c([N+](=O)[O-])c1 [(Z)-5-(3-Nitro-4-((2,3,5,6-tetrafluoro-4-(trifluoromethyl)phenyl)thio)benzylidene)-2-thioxothiazolidin-4-one 21]
